Results from the NIST ThermoML archive (doi:10.1021/je060271a).

Details: 343.15 K, Liquid, Vibrating tube method

CCCC(=O)OCC(COC(=O)CCC)(COC(=O)CCC)COC(=O)CCC [pentaerythritol tetrabutyrate]
Details	mass density [kg/m3]
27905 kPa	1028.5
27944 kPa	1028.4
27976 kPa	1028.5
28014 kPa	1028.6
28054 kPa	1028.6
28087 kPa	1028.5
28127 kPa	1028.6
28281 kPa	1028.7
28314 kPa	1028.6
28355 kPa	1028.7
28389 kPa	1028.6
28430 kPa	1028.9
28465 kPa	1028.7
28506 kPa	1028.8
28548 kPa	1028.9
28583 kPa	1028.8
28623 kPa	1028.9
28658 kPa	1029
28700 kPa	1028.9
28735 kPa	1029.1
28776 kPa	1029
28818 kPa	1029
28853 kPa	1029.1
28895 kPa	1029.1
28938 kPa	1029.2
28973 kPa	1029.2
29016 kPa	1029.2
29052 kPa	1029.3
29095 kPa	1029.1
29138 kPa	1029.2
29173 kPa	1029.4
29217 kPa	1029.4
29262 kPa	1029.3
29299 kPa	1029.4
29344 kPa	1029.3
29386 kPa	1029.4
29417 kPa	1029.3
29455 kPa	1029.4
29492 kPa	1029.5
29524 kPa	1029.5
29563 kPa	1029.6
29744 kPa	1029.6
29776 kPa	1029.7
29815 kPa	1029.6
29847 kPa	1029.7
29886 kPa	1029.7
29926 kPa	1029.8
29959 kPa	1029.8
29999 kPa	1029.8
30033 kPa	1030
30073 kPa	1029.8
30115 kPa	1029.9
30149 kPa	1029.9
30190 kPa	1029.9
30494 kPa	1030.1
30523 kPa	1030.1
30557 kPa	1030.2
30591 kPa	1030.2
30621 kPa	1030.3
30656 kPa	1030.2
30685 kPa	1030.1
30721 kPa	1030.3
30750 kPa	1030.3
30945 kPa	1030.3
30981 kPa	1030.5
31016 kPa	1030.3
31046 kPa	1030.5
31082 kPa	1030.5
31111 kPa	1030.5
31147 kPa	1030.5
31176 kPa	1030.6
31212 kPa	1030.4
31249 kPa	1030.7
31280 kPa	1030.7
31317 kPa	1030.6
31347 kPa	1030.6
31384 kPa	1030.8
31414 kPa	1030.8
31451 kPa	1030.8
31487 kPa	1030.8
31518 kPa	1030.8
31554 kPa	1030.8
31590 kPa	1030.9
31621 kPa	1030.9
31658 kPa	1031
31688 kPa	1030.9
31725 kPa	1030.9
31763 kPa	1031
31794 kPa	1031
31831 kPa	1030.9
31867 kPa	1031.1
31898 kPa	1031.1
31934 kPa	1031.1
31970 kPa	1031
32008 kPa	1031.1
32044 kPa	1031.1
32074 kPa	1031.1
32111 kPa	1031.4
32149 kPa	1031.2
32255 kPa	1031.2
32292 kPa	1031.2
32329 kPa	1031.2
32367 kPa	1031.2
32398 kPa	1031.5
32436 kPa	1031.5
32474 kPa	1031.3
32512 kPa	1031.3
32544 kPa	1031.4
32582 kPa	1031.4
32621 kPa	1031.5
32660 kPa	1031.4
32699 kPa	1031.6
32731 kPa	1031.5
32769 kPa	1031.5
32808 kPa	1031.6
32846 kPa	1031.6
32919 kPa	1031.6
32958 kPa	1031.8
33037 kPa	1031.7
33070 kPa	1031.8
33110 kPa	1031.7
33151 kPa	1031.7
33191 kPa	1031.8
33231 kPa	1032
33264 kPa	1031.8
33304 kPa	1032.1
33345 kPa	1032.1
33379 kPa	1032
33420 kPa	1032.1
33461 kPa	1032.1
33502 kPa	1032.1
33951 kPa	1032.4
33995 kPa	1032.4
34033 kPa	1032.3
34080 kPa	1032.5
34127 kPa	1032.4
34177 kPa	1032.6
34220 kPa	1032.5
34271 kPa	1032.6
34323 kPa	1032.5
34368 kPa	1032.6
34420 kPa	1032.7
34453 kPa	1032.7
34484 kPa	1032.7
34510 kPa	1032.7
34517 kPa	1032.7
34520 kPa	1032.8
